In US7071168B2, “Anti-cancer compounds and methods related thereto” (The Regents of the University of Colorado, priority 1998, dated 2006):

What was measured:
[1] = tested on: bradykinin response of isolated guinea pig ileum; experiment: Anti-bradykinin activity on isolated guinea pig ileum
In short: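 Terminal ileum segments (25 mm) from overnight-fasted male Hartley guinea pigs, in Krebs' solution gassed with 95% O2/5% CO2 under 1 g tension, equilibrated 1 h. Bradykinin concentration-effect curves constructed without and with test compounds.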

SCLC strain SHP-77 = experiment: Colorimetric tetrazolium (MTT) assay for cell survival, SCLC strain SHP-77; assay type: cell-based, human
In short: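 MTT assay: cells seeded overnight, treated in triplicate across a concentration range for 4 days at 37 °C, 5% CO2. On day 5, MTT was added for 4 h; formazan was dissolved in acidified isopropanol and absorbance read.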

[2] = isolated guinea pig ileum, pD2 of bradykinin is 7.4, higher numbers indicate higher potency
[3] = Table 1, higher numbers indicate higher potency

Compound	GPI: pA2 for bradykinin antagonist activity on isolated guinea pig ileum [1, 2]	MTT: ED50 for killing of SCLC strain SHP-77 in vitro (SCLC strain SHP-77; SCLC strain SHP-77 in vitro) [µM]	GPI: pA2 for bradykinin antagonist activity on isolated guinea pig ileum [1, 3]	MTT: ED50 for killing of SCLC strain SHP-77 in vitro (SCLC strain SHP-77; Table 1, SHP-77, MTT, 4 days)	also measured
CC1(C)CC(NC(=O)[C@H](Cc2csc3ccccc23)NC(=N)CCCCCCCCCCCCC(=N)N[C@@H](Cc2csc3ccccc23)C(=O)NC2CC(C)(C)NC(C)(C)C2)CC(C)(C)N1 [M436-2]	5.8	4.5			
DDD-(DPhe-hPhe-Arg)2 [M756]			5.2	18 µM	
Ppa-hPhe-Arg [M708]			5.8	Inact	
CN1CCN(NC(=O)[C@H](Cc2ccc3ccccc3c2)NC(=O)C=Cc2ccc(NC(=O)CCCCCCCCCCC(=O)O)cc2)CC1 [M480-1]	5.1	45			
CC1(C)CC(NC(=O)[C@@H](Cc2ccc3ccccc3c2)NC(=NC2CCCCC2)NC2CCCCC2)CC(C)(C)N1 [M246]	5.7	>50			
Moti-DArg-Arg-Pro-Hyp-Gly-Thi-Ser-DIgl-Oic-Arg [B10104-3]			8.1	20 µM	
DDD-(DArg-2Nal-Arg)2 [M508]			Inact	23 µM	
F5c-DArg-Arg-Aud-DTic-Oic-Arg [M788]			5	9 µM	
c[DArg-Arg-Eac-Ser-DF5F-Oic-Arg] [M872]					GPI: pA2 for bradykinin antagonist activity on isolated guinea pig ileum ([1]; Table 3, cyclic peptides): Inact; MTT: ED50 for killing of SCLC strain SHP-77 in vitro (SCLC strain SHP-77; Table 3, cyclic peptides): 2.2 µM
EGS-(DArg-Arg-Pro-Hyp-Gly-Igl-Ser-DIgl-Oic-Arg)2 [B10252]			8.3	25 µM	
Leu-DTrp-Phe-DTrp-DNMF-Eac2-DArg-Arg-Pro-Hyp-Gly-Igl-Ser-DIgl-Oic-Arg [B10160]			6.3	10 µM	
DDD-(DArg-Arg-Eac-Ser-DF5F-Oic-Arg)2 [M804]			7.7	7.3 µM	
CN(C)c1ccc(C=CC(=O)NC(Cc2ccc3ccccc3c2)C(=O)NC2CC(C)(C)NC(C)(C)C2)cc1 (centres unmarked) [M324]	5.2	3			
(Dns-DArg-Igl-Arg)2-DDA [M678]	5.3	1.1			
CC1(C)CC(NC(=O)[C@H](Cc2ccc3ccccc3c2)NC(=N)CCCCCCCCCCCCC(=N)N[C@@H](Cc2ccc3ccccc3c2)C(=O)NC2CC(C)(C)NC(C)(C)C2)CC(C)(C)N1 [M254-2]	5.8	5			
CCOC(=O)N1CCC(NC(=O)C(Cc2ccc3ccccc3c2)NC(=O)C=Cc2ccc(N)cc2)CC1 (centres unmarked) [M604]	4.5	43			
CN(C)c1ccc(C=CC(=O)NC(Cc2csc3ccccc23)C(=O)NC2CC(C)(C)NC(C)(C)C2)cc1 (centres unmarked) [M448]	5.7	2.7			
c[Bala-DArg-Arg-Eac-Ser-DF5F-Oic-Arg] [M910]					GPI: pA2 for bradykinin antagonist activity on isolated guinea pig ileum ([1]; Table 3, cyclic peptides): 5.2; MTT: ED50 for killing of SCLC strain SHP-77 in vitro (SCLC strain SHP-77; Table 3, cyclic peptides): 42 µM
DDD-(DArg-Arg-Aud-DTic-hPhe-Arg)2 [M770]			Inact	8 µM	
SUB-(DArg-Arg-Eac-Ser-DF5f-Nc7G-Arg)2 [M1024]			7.2	14 µM	
F5c-DArg-Arg-Eac-Ser-DF5F-Oic-Arg [M796]			6.5	31 µM	
c[DArg-Arg-Ava-Ser-DIgl-PFF-Arg] [M902]					GPI: pA2 for bradykinin antagonist activity on isolated guinea pig ileum ([1]; Table 3, cyclic peptides): 5.5; MTT: ED50 for killing of SCLC strain SHP-77 in vitro (SCLC strain SHP-77; Table 3, cyclic peptides): 30 µM
CN(C(=O)C(Cc1ccc(OCc2c(Cl)cccc2Cl)cc1)NC(=O)C=Cc1c(F)c(F)c(F)c(F)c1F)C1CC(C)(C)NC(C)(C)C1 (centres unmarked) [M592]	4.9	1.5			
CC1(C)CC(NC(=O)C(Cc2ccc3ccccc3c2)NC(=O)CCSSCCC(=O)NC(Cc2ccc3ccccc3c2)C(=O)NC2CC(C)(C)NC(C)(C)C2)CC(C)(C)N1 (centres unmarked) [M286]	5.1	24			
DDD-(Pac-hPhe-Arg)2 [M746]			Inact	Inact	
